Measurements: patent US7321046B2, “Analogs of dictyostatin, intermediates therefor and methods of synthesis thereof” (University of Pittsburgh, priority 2002, dated 2008)
Read-outs that look alike come from different tables or passages of the source.

Assays:
[1] = system: 1A9/Ptx10 (Phe270 −> Val) β-tubulin mutant cells; assay: Antiproliferative assay (GI50, MTS), paclitaxel-resistant clone; format: cell-based, human; settings: for fold-resistance: 1A9/Ptx10 versus parental 1A9
Method: (§1) Representative analogs were examined for their antiproliferative activities against human ovarian carcinoma 1A9 cells and their paclitaxel-resistant mutants, 1A9/Ptx10 and 1A9/Ptx22.
(§2) The effects of dictyostatin and its analogs on growth inhibition of parental ([…]) and paclitaxel-resistant (1A9/Ptx10 and Ptx22) ovarian adenocarcinoma cell lines were evaluated following the antiproliferative assay protocol as described earlier (Minguez et al., 2003; Choy et al., 2003; Lazo et al., 2001). Cells were maintained in RPMI medium with 10% FBS in it, plated in tissue culture plates, and allowed to grow for 48-72 h before transferring them into 96-well plates. Cells were allowed to attach and grow for 48 h in 96-well plates after which they were treated with either control (DMSO) or drug in triplicate/quadruplicate. Cells were incubated with the compounds for 72 h. Cells were treated with MTS reagent before reading the plate in a Dynamax plate reader for determining the cell number. The fifty percent growth inhibition values (GI50 values) were calculated for the compounds against all the three cell lines.

[2] = system: 1A9/Ptx22 (Ala364 −> Thr) β-tubulin mutant cells; assay: as above; format: cell-based, human; settings: for fold-resistance: 1A9/Ptx22 versus parental 1A9
Method: as §1, §2

[3] = system: purified bovine brain tubulin; assay: Tubulin polymerization assay (turbidity); format: biochemical; settings: tubulin 1 mg/mL ± MAPs ± GTP, agents at 10 and 40 μM, 0 to 30° C.
Method: The abilities of the new compounds to cause tubulin polymerization were determined under reaction conditions consisting of purified bovine brain tubulin (1 mg/mL) in the presence or absence of microtubule-associated proteins (MAPs, 0.75 mg/mL) and GTP (100 μM). Test agents were initially screened at 10 and 40 μM. In these experiments, test agent-induced assembly of soluble tubulin into polymer, with respect to the presence and absence of cofactors and at different temperatures, was monitored in a multi-cuvette, temperature-controlled spectrophotometer via development of turbidity in the solution. The initial temperature was closely controlled at 0° C., then rapidly raised to 10° C., to 20° C., then finally to 30° C. to determine both the temperature at which a test agent induced assembly as well as the extent of agent-induced assembly. The temperature increases were followed by a rapid decrease in temperature back to 0° C. to determine the cold-stability of polymer formed.
Tubulin assembly was monitored turbidimetrically in Gilford 250 spectrophotometers equipped with electronic temperature controllers as described previously (ter Haar et al., 1996). The reaction mixtures without the compounds consisted of tubulin (1 mg/ml), heat-treated MAPs (0.75 mg/ml, if present), GTP (100 μM, if present), and 0.1M (4-morpholinyl)ethane sulfonate (MeS). Baselines were established after addition of all reaction components except the compounds to the cuvettes held at 0° C. Compounds, at 10 μM or 40 μM final concentration, were then added and each reaction mixture (0.25 mL final volume) was subjected to the indicated temperature changes.

HeLa cells = assay: Multiparameter fluorescence high information content analysis of cellular effects; format: cell-based; set-up: unit not given here; settings: 24 h treatment; for Minimum detectable cellular change, Nuclear condensation: Hoechst 33342
Method: HeLa cells were plated on collagen-coated 384-well microtiter plates, allowed to attach, then treated for 24 h with test agents. Test agent concentrations began at 1 μM, and two-fold dilutions were made to levels below 1 nM. After the treatment period, the cells were fixed with formalin and their chromatin stained with Hoechst 33342. Cells were permeabilized and treated with primary antibodies for α-tubulin and phosphohistone H3, and then with fluorophore-labeled secondary antibodies. The three fluorescent channels were then examined on an ArrayScan II, which gives quantitative pixel distribution and density information in each channel on a per cell basis.
HeLa cells growing at log phase were trypsinized and plated in 40 μL at a density of 7,000-8,000 cells per well in calf skin collagen I-coated 384-well plates (Falcon #3962; Fisher Scientific). Cells were exposed to test agents or 0.5% DMSO within 2-8 h of plating. Concentrated DMSO stock solutions of all test agents were diluted into solutions of HBSS medium plus 10% FBS and added to the microplate wells (10 μL per well), using an automated liquid handling system (Biomek® 2000; Beckman-Coulter, Inc.) to provide a serial 2-fold dilution of each test agent. The cells were incubated in the presence of test agents for 24 h. At the end of the incubation, the medium was removed and replaced with HBSS containing 4% formaldehyde and 10 μg/mL Hoechst 33342 (25 μL/well) to fix the cells and fluorescently label their chromatin. After incubation at room temperature for 20-30 min, the solution was removed from each well and replaced with HBSS (100 μL/well). Further reagent additions were made to the microplates using the Biomek 2000. After removing the HBSS from each well, cells were permeabilized for 5 min at room temperature with 0.5% (w/w) Triton X-100 in HBSS (10 μL/well). This step extracts a fraction of the soluble cellular components, including soluble tubulin. The wells were washed with HBSS (100 μL/well), followed by addition of a primary antibody solution containing mouse anti-α-tubulin (1:3000) and rabbit anti-phosphohistone H3 (1:500) in HBSS (10 μL/well). After 1 h at room temperature, the wells were washed with HBSS as above, followed by the addition of a secondary antibody solution containing fluorescein-5-isothiocyanate (FITC)-labeled donkey anti-mouse (1:300) and Cy3-labeled donkey anti-rabbit (1:300) antibodies diluted in HBSS (10 μL/well). After 1 h at room temperature, the wells were washed as above, and HBSS was added (100 μL/well). The plates were placed in an ArrayScan® HCS Reader with the Target Activation BioApplication Software coupled to Cellomics® Store and the vHCS™ Discovery Toolbox (Cellomics, Inc.) to analyze images. Briefly, the instrument was used to scan multiple optical fields, each with multiparameter fluorescence, within a subset of the wells of the 384-well microplate. The BioApplication software produced multiple numerical feature values, such as subcellular object intensities, shapes, and location for each cell within an optical field. […] A nuclear mask was generated from Hoechst 33342-stained nuclei, and object identification thresholds and shape parameters were set such that the algorithm identified over 90% of the nuclei in each field. Objects that touched each other or the edge of the image were excluded from the analysis. Tubulin mass was defined as the average green (FITC) pixel intensity in an area defined by the Hoechst-defined nuclear mask. This cytoplasmic area around the nucleus contains cytoskeletal components is a region from which sensitive measurements of cytoplasmic characteristics can be made.

[4] = Homo sapiens, 1A9/ptx-10, 72 h, read-out: GI50 ± S.D., 1A9/Ptx10 (Phe270 −> Val), 72 h incubation
[5] = Homo sapiens, 1A9/ptx-22, 72 h, read-out: GI50 ± S.D., 1A9/Ptx22 (Ala364 −> Thr), 72 h incubation

Structure (SMILES)	fold-resistance [1]	GI50 [1, 4]	fold-resistance [2]	GI50 [2, 5]	test agent-induced tubulin assembly, turbidity profile (in words) [3]	Minimum detectable cellular change, Phosphohistone H3 (HeLa cells)	Minimum detectable cellular change, Tubulin polymer intensity (HeLa cells)	Minimum detectable cellular change, Nuclear condensation (HeLa cells)	GI50 ([1]; read-out: GI50 ± S.D., 1A9/Ptx10 (Phe270 −> Val), 72 h incubation)	GI50 ([2]; read-out: GI50 ± S.D., 1A9/Ptx22 (Ala364 −> Thr), 72 h incubation)
C=C/C=C\[C@H](C)[C@H](O)[C@@H](C)[C@H](O)CC[C@H](C)C[C@H](C)[C@@H](O)[C@@H](C)/C=C\[C@@H](O)C[C@H](O)[C@H](C)/C=C/C=C\C(=O)OC [Compound 50, (2Z,4E,6R,7S,9S,10Z,12S,13R,14S,16S,19R,20S,21S,22S,23Z)-Methyl-7,9,13,19,21-penta-hydroxy-6,12,14,16,20,22-hexamethylhexacosa-2,4,10,23,25-pentaenoate]	1.4 fold	79 ± 13 nM	1.5 fold	85 ± 2 nM	caused tubulin assembly at temperatures lower than 30 °C	149 ± 23.6 (4)	219 ± 36 (4)	479 ± 182 (4)		
C=CC=CC(C)C1OC(=O)C=CC=CC(C)C(O)CC(O)C=CC(C)C(O)C(C)CC(C)CCC(O)C1C [Compound 59, (8S,10S,14R,20S)-Tetrahydroxy-(7R,13S,15S,17S,21s)-pentamethyl-(22S)-((1S)-methylpenta-2,4-dienyl)-oxacyclodocosa-3,5,11-trien-2-one]	5.7 fold		2.0 fold		caused tubulin assembly at temperatures lower than 30 °C	261 ± 91 (4)	284 ± 108 (4)	363 ± 146 (2)	120 ± 60 nM	43 ± 12 nM
C=C/C=C\[C@H](C)[C@H](OC(N)=O)[C@@H](C)[C@H](O)[C@@H](C)C/C(C)=C\[C@H](C)[C@@H](O)[C@@H](C)/C=C\[C@@H](O)C[C@@H]1OC(=O)[C@H](C)[C@@H](O)[C@H]1C [discodermolide, reference compound]	3.6 fold	6.2 ± 3.6 nM	4.1 fold	7 ± 8.4 nM	far more potent than those of paclitaxel	38.4 ± 21.9 (2)	64.6 ± 0.0 (2)	62.5 (1)		
C=CC=CC(C)C1OC(=O)C=CC=CC(C)C(O)CC(O)C=CC(C)C(O)C(C)CCCCC(O)C1C [Compound 79, (8S,10S,14R,20R)-Tetrahydroxy-(7R,13S,15S,21S)-tetramethyl-(22S)-((1S)-methylpenta-2,4-dienyl)-oxacyclodocosa-3,5,11-trien-2-one]	1146 fold	470 ± 70 nM	14 fold	5.6 ± 4.7 nM	especially potent among the analogs	34.4 ± 10.5 (4)	26.9 ± 2.9 (4)	71.5 ± 18.0 (4)		
C=C/C=C\[C@H](C)[C@@H]1OC(=O)/C=C\C=C\[C@@H](C)[C@@H](O)C[C@H](O)/C=C\[C@H](C)[C@H](O)[C@@H](C)C[C@@H](C)CC[C@@H](O)[C@@H]1C [dictyostatin-1, (8S,10S,14R,20R)-Tetrahydroxy-(7R,13S,15S,17S,21S)-pentamethyl-(22S)-((1S)-methylpenta-2,4-dienyl)oxacyclodocosa-3,5,11-trien-2-one, reference compound]	4.6 fold	3.2 ± 2.4 nM	1.9 fold	1.3 ± 1 nM	far more potent than those of paclitaxel	9.6 ± 2.4 (4)	7.4 ± 2.5 (4)	32.7 ± 11.7 (3)		
